Test results as given in ChEMBL document CHEMBL1132530, “Picking the S1, S1' and S2' pockets of matrix metalloproteinases. A niche for potent acyclic sulfonamide inhibitors” (Bioorg Med Chem Lett, 1999).

Experiments:
[1] = biological target: Matrix metalloproteinase-9 (Homo sapiens, UniProt P14780); experiment: Inhibition of matrix metalloprotease-9
[2] = biological target: Stromelysin-1 (Homo sapiens, UniProt P08254); experiment: Inhibition of matrix metalloprotease-3
[3] = biological target: 72 kDa type IV collagenase (Mus musculus, UniProt P33434); experiment: (§1) Inhibition of matrix metalloprotease-2
72 kDa type IV collagenase (Mus musculus, UniProt P33434), sequence (P33434 whole entry): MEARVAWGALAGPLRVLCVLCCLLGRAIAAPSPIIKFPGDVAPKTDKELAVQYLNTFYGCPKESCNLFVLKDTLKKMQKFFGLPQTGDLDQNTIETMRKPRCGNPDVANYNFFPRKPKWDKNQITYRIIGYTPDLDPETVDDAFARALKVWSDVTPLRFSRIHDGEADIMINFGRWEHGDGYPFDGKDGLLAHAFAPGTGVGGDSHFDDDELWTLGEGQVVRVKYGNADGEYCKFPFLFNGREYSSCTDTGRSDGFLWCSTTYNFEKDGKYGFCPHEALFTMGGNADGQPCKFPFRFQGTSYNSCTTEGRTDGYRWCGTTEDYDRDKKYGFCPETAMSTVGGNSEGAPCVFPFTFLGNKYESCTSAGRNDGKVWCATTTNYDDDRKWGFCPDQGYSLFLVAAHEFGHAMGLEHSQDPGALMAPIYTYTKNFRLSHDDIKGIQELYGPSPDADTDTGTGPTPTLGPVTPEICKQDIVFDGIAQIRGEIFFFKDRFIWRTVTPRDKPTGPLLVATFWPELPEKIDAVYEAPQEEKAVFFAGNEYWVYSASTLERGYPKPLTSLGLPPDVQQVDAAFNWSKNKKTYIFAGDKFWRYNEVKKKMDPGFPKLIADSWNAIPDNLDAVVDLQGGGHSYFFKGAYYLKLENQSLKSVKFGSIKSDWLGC

[4] = biological target: Matrix metalloproteinase-9 (Mus musculus, UniProt P41245); experiment: Inhibitory concentration required against matrix metalloprotease-9 (MMP-9 gelatinase B)
Matrix metalloproteinase-9 (Mus musculus, UniProt P41245), sequence (P41245 whole entry): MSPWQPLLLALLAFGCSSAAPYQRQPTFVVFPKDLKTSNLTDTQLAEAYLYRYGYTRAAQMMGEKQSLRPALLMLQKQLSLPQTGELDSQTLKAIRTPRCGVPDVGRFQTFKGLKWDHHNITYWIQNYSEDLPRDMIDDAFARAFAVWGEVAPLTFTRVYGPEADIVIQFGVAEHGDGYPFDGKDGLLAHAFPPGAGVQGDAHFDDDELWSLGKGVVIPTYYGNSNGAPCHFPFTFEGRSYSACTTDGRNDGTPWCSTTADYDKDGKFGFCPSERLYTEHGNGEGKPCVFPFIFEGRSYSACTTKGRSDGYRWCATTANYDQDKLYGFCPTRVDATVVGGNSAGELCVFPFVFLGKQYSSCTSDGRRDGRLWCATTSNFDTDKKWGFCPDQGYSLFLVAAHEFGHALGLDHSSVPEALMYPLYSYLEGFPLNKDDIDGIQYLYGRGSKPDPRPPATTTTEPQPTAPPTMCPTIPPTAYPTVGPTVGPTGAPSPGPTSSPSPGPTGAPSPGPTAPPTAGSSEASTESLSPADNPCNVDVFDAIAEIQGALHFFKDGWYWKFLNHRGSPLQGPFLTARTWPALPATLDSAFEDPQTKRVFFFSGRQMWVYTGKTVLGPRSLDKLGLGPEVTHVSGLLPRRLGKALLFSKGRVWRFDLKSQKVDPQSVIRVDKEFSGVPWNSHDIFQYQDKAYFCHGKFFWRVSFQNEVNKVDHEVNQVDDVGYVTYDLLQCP

[5] = biological target: 72 kDa type IV collagenase (Homo sapiens, UniProt P08253); experiment: as §1
72 kDa type IV collagenase (Homo sapiens, UniProt P08253), sequence (P08253 whole entry): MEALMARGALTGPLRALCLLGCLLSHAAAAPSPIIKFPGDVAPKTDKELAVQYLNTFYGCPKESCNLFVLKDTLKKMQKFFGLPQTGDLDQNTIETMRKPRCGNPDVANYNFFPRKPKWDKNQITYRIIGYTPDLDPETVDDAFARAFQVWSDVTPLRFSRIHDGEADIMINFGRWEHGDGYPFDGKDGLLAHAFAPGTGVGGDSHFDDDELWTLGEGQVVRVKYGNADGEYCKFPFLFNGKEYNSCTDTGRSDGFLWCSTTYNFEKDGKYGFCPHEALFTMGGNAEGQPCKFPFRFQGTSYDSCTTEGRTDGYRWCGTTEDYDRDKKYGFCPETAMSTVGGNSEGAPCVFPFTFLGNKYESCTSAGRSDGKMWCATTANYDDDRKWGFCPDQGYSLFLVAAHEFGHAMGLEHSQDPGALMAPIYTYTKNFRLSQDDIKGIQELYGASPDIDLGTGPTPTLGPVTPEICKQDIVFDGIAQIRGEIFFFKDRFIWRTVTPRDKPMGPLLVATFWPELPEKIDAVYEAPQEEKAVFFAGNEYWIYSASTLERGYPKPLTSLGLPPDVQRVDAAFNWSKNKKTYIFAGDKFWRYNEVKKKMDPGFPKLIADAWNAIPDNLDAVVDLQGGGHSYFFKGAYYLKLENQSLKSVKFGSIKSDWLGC

[6] = biological target: T1, Interstitial collagenase (Homo sapiens, UniProt P03956); experiment: Inhibition of matrix metalloprotease-1
T1 sequence (P03956 whole entry): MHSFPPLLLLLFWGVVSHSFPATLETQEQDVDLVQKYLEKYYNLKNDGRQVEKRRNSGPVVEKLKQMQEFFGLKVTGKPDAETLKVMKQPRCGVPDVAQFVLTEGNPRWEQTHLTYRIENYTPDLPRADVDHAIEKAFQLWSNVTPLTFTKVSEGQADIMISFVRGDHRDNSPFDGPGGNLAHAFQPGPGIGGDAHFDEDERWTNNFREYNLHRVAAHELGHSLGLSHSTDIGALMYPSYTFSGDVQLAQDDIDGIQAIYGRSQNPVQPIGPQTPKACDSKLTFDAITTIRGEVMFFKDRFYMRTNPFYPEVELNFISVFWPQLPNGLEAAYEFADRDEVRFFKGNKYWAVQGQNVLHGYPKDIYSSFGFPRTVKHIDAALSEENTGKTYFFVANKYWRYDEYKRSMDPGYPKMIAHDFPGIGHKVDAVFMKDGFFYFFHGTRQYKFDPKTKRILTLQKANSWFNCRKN

[7] = biological target: Collagenase 3 (Homo sapiens, UniProt P45452); experiment: Inhibition of matrix metalloprotease-13

Matrix metalloproteinase-9 (Homo sapiens, UniProt P14780), sequence (P14780 whole entry): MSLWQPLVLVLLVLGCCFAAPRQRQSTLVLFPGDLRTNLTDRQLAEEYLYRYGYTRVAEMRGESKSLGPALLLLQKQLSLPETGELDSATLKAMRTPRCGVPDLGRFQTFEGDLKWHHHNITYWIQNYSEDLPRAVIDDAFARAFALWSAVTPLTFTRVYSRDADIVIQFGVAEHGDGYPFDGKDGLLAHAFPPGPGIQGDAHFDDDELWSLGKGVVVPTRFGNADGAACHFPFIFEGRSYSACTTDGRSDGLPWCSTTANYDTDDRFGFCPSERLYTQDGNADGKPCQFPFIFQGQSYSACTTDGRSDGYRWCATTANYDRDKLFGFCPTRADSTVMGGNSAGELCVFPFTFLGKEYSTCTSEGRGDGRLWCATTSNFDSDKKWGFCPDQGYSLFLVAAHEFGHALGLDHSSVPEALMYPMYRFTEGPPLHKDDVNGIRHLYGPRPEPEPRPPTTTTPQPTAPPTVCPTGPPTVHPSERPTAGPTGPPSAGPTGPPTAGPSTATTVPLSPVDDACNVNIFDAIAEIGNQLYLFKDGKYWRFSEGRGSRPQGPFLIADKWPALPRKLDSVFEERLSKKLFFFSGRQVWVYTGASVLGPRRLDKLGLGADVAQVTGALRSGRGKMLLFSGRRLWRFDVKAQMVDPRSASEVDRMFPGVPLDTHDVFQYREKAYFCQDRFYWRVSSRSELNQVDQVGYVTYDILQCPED
Stromelysin-1, sequence (P08254 whole entry): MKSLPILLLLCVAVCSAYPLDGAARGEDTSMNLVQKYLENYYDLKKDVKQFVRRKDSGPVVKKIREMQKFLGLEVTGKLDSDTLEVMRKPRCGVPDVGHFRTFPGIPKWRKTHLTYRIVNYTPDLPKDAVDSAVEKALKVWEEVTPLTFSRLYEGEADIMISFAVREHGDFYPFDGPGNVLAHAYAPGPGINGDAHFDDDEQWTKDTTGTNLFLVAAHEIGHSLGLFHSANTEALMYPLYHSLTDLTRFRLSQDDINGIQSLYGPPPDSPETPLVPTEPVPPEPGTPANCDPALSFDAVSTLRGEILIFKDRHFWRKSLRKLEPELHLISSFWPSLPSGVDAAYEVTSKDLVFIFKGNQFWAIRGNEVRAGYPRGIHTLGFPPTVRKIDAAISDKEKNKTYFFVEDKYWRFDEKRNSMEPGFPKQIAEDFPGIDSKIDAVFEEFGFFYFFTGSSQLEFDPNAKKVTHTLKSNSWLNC

Compound | IC50 [1] [nM] | IC50 [2] [nM] | IC50 [3] [nM] | IC50 [4] [nM] | IC50 [5] [nM] | IC50 [6] [nM] | IC50 [7] [nM]
COc1ccc(S(=O)(=O)N(CC(C)C)[C@@H](CCSCc2ccc(OCc3ccccc3)cc2)C(=O)NO)cc1 | 8 | 29 | – | – | – | – | –
COc1ccc(S(=O)(=O)N(Cc2cccnc2)[C@@H](C(=O)NO)C(C)C)cc1 [CGS-27023A] | – | – | 15 | 10 | – | – | –
CC[C@@H](C(=O)NO)N(CC(C)C)S(=O)(=O)c1ccc(OC)cc1 | 7 | 45 | – | – | 53 | 384 | 96
CC(C)CN([C@@H](CCSCc1ccccc1)C(=O)NO)S(=O)(=O)c1ccc(-c2ccccc2)cc1 | – | 90 | 4.1 | 2.5 | – | – | 3.8
COc1ccc(S(=O)(=O)N(CC(=O)NC(c2ccccc2)c2ccccc2)[C@H](CCSCc2ccccc2)C(=O)NO)cc1 | – | 3.7 | 2.3 | 0.5 | – | – | 4.5
COc1ccc(S(=O)(=O)N(CC(C)C)[C@@H](CCSCc2ccc(-c3ccccc3)cc2)C(=O)NO)cc1 | 0.2 | 20 | – | – | 30 | – | –
CSCC[C@@H](C(=O)NO)N(CC(C)C)S(=O)(=O)c1ccc(-c2ccccc2)cc1 | 0.2 | 37 | – | – | 0.7 | 156 | 3
COc1ccc(S(=O)(=O)N(CC(C)C)[C@@H](CCSCc2ccccc2)C(=O)NO)cc1 | 2.5 | 0.7 | – | – | 0.7 | 104 | 12
